Test results: patent publication US20100216703A1, “Inhibitors of PDE4 and Methods of Use” (THE REGENTS OF THE UNIVERSITY OF CALIFORNIA, priority 2006, published 2010)
Entries after “also recorded” stand apart in the source; their conditions may differ.

Legend:
NIH3T3p75NTR cells [1] = test: Competitive binding cAMP ELISA; format: cell-based; conditions: for intracellular cAMP levels in NIH3T3p75NTR cells: 16 h, PTX 100 ng/ml, IBMX 500 μM, PDE1 inh. 18.7 μM, EHNA 80 μM, trequinsin 100 nM, rolipram 10 μM, PDE5 inh. 23 μM
Method: […] fibroblasts or 500,000 SCs were lysed in 0.1 N HCl solution and cAMP was measured using a competitive binding cAMP ELISA (Assay Designs). Cells were treated with 100 ng/ml PTX for 16 h. […] Cells were treated with forskolin in the presence of the inhibitors for 1 h. […] For the qualitative and quantitative PKA assay (Promega), cells were treated with 10 μM forskolin for 30 min, lysed in 1% NP-40 buffer with 150 mM NaCl, 50 mM Tris, and 1 mM EGTA, and protein concentration was determined using the Bradford Assay (Bio-Rad Laboratories). 1 μg was loaded into the PKA assay reaction mix according to the manufacturer's protocol (Promega).

NIH3T3 cells [2] = test: Quantification of tPA activity; format: cell-based; conditions: 10 μM forskolin 16 h; 200 nM KT5720; IBMX
Method: (§1) Quantification of tPA and uPA activity in SC and fibroblast in lysates and supernatants was performed according to the directions of the activity assay kits from American Diagnostica and Chemicon, respectively. To elevate cAMP cells were treated either with 2 mM db-cAMP (Sigma-Aldrich) or with 10 μM forskolin (Sigma-Aldrich) for 16 h. To block PKA activity, cells were treated with 200 nM KT5720 (Calbiochem).

NIH3T3p75NTR cells [3] = test: Quantification of tPA activity; format: cell-based; conditions: 10 μM forskolin 16 h; 200 nM KT5720; IBMX; rolipram
Method: as §1

NIH3T3 cells [4] = test: RT-PCR / real-time PCR of tPA and PAI-1 RNA; format: cell-based
Method: RT-PCR was performed as described previously (Akassoglou et al., 2002). Primers for tPA, uPA, and PAI-1 genes were used as described previously (Yamamoto and Loskutoff, 1996). Real-time PCR was performed using the Opticon DNA Engine 2 (MJ Research) and the Quantitect SYBR Green PCR kit (QIAGEN). Results were analyzed with Opticon 2 software using the comparative Ct method as described previously (Livak and Schmittgen, 2001). Data were expressed as ΔΔCt for the tPA gene normalized against GAPDH.

NIH3T3p75NTR cells [5] = test: Fibrin degradation assay on 3D fibrin gel; format: cell-based; conditions: 2 mM db-cAMP
Method: as §1
(§2) Coating with fibrin was prepared as described previously (Lansink et al., 1998). To quantitate fibrin degradation, the supernatant was aspirated and the remaining gel was weighed using an analytical balance. Decrease of gel weight corresponded to increased fibrin gel degradation.

tPA = target: T1, tPA (Mus musculus, UniProt P11214); test: In situ zymography of crushed sciatic nerve; format: biochemical; conditions: injured sciatic nerve of p75NTR−/− mice, in the presence of plasminogen
T1 construct: from tissue; host or cells: crushed sciatic nerve of p75NTR-/- mice (C57Bl/6 background)
T1 sequence (P11214 33-559): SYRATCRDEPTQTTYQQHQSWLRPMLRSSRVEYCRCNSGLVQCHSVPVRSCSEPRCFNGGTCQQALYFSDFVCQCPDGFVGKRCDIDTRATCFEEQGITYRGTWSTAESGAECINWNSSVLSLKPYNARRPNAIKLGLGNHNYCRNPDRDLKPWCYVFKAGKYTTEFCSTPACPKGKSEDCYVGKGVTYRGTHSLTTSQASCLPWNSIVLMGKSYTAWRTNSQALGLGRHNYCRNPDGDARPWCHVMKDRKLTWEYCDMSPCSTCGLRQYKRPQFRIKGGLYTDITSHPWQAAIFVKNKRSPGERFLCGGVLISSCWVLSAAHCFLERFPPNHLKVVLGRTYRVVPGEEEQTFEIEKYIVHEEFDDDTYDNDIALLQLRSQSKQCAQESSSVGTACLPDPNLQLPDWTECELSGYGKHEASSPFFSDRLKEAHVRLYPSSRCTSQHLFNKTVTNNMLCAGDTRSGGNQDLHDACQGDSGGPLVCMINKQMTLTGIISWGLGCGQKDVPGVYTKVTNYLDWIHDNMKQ
Method: In situ zymographies were performed as described previously (Akassoglou et al., 2000). Quantification of in situ zymographies was performed by measuring the area of the lytic zone surrounding each nerve, and dividing that value by the area of the nerve. Images were collected after 8 h of incubation for the sciatic nerve and 4 h of incubation for the lung. For cell zymographies, cultures were washed four times with PBS/BSA and overlaid with 200 μl of Dulbecco's […] medium containing 1% LMP agarose, 2.5% boiled nonfat milk, and 25 μg/ml human plasminogen. The overlay was allowed to harden, and plates were incubated in a cell culture incubator at 37° C. Pictures of lytic zones were taken using an inverted microscope under dark field (Carl Zeiss Microlmaging, Inc.).

NIH3T3 cells [6] = test: Fibrin degradation assay on 3D fibrin gel; format: cell-based
Method: as §2

wt and p75NTR−/− SCs = test: Quantification of tPA activity in primary Schwann cells; format: cell-based, mouse; conditions: 10 μM forskolin, 100 ng/ml NGF, 50 ng/ml BDNF, 16 h
Method: as §1
Murine SCs were isolated as described previously (Syroid et al., 2000). NIH3T3 or HEK293 cells were cotransfected either with p75NTR FL, ICD or deletion constructs, and PDE4A5 cDNAs using Lipofectamine 2000 (Invitrogen) as described in the Results section. CGNs were isolated from P10 animals (Yamashita and Tohyama, 2003). CGNs were lysed immediately for co-IP, without plating. siRNA directed against p75NTR (Dharmacon; SMART Pool reagent, Cat. M-080041-00; Cat. M-009340) was transfected into SCs and NIH3T3p75NTR cells using Dharmafect (Dharmacon).

[7] = target: p75 neurotrophin receptor (p75NTR), stably expressed in NIH3T3p75NTR cells

With `CCCCCC[C@@H]([C@@H](C)O)n1cnc2c(N)ncnc21` (racemic) [EHNA, erythro-9-(2-Hydroxy-3-nonyl)adenine] as the molecule, how does the “intracellular cAMP levels in NIH3T3p75NTR cells” value (NIH3T3p75NTR cells [1]) read?
The value was “only IBMX (P<0.0001) and rolipram (P<0.0001) increase”.

With `COc1ccc2ncnc(NCc3ccc4c(c3)OCO4)c2c1` [4-{[3′,4′-(Methylenedioxy)benzyl]amino}-6-methoxyquinazoline] as the molecule, how does the “intracellular cAMP levels in NIH3T3p75NTR cells” value (NIH3T3p75NTR cells [1]) read?
The value was “only IBMX (P<0.0001) and rolipram (P<0.0001) increase”.

Which “intracellular cAMP levels in NIH3T3p75NTR cells” value (NIH3T3p75NTR cells [1]) does the source give for `COCc1nc2c([nH]1)c(=O)n(C)c(=O)n2CC(C)C` [8-Methoxymethyl-IBMX, 8-methoxymethyl-3-isobutyl-1-methylxanthine] here?
The value was “only IBMX (P<0.0001) and rolipram (P<0.0001) increase”.

With `CCCCCCOC(=O)[C@]1(O)C[C@@H]2O[C@@]1(C)n1c3ccccc3c3c4c(c5c6ccccc6n2c5c31)C(=O)NC4` [KT5720] as the molecule, how does the “tPA activity in NIH3T3 cells” value (NIH3T3 cells [2]) read?
Its value is “decrease of tPA activity; also recorded: decreases tPA activity”.

And the “tPA activity in NIH3T3p75NTR cells” value (NIH3T3p75NTR cells [3])?
Its value is “decrease of tPA activity”.

What about the “tPA mRNA in NIH3T3 cells” value (NIH3T3 cells [4]) of the same molecule?
Its value is “decreases tPA transcript; also recorded: decreases tPA RNA”.

`CCCC(=O)Nc1ncnc2c1ncn2[C@@H]1O[C@@H]2COP(=O)(O)O[C@H]2[C@H]1OC(=O)CCC` [db-cAMP, dibutyryl-cAMP] was tested. Which “fibrinolysis in NIH3T3p75NTR cells” value (NIH3T3p75NTR cells [5]) did it give?
Its value is “induces fibrinolysis; also recorded: overcomes the inhibitory effect of p75NTR”.

For `Cl.Cl.N=C(N)c1ccc(C=C2CCCCC(=Cc3ccc(C(=N)N)cc3)C2=O)cc1` [tPASTOP], which “proteolytic activity (in situ zymography)” value (tPA) is on record?
The value was “blocks proteolytic activity”.

`COc1cc2c(cc1OC)-c1c/c(=N\c3c(C)cc(C)cc3C)n(C)c(=O)n1CC2` [trequinsin] was tested. Which “intracellular cAMP levels in NIH3T3p75NTR cells” value (NIH3T3p75NTR cells [1]) did it give?
The value was “only IBMX (P<0.0001) and rolipram (P<0.0001) increase”.

For Aprotinin, which “fibrin degradation by NIH3T3 cells” value (NIH3T3 cells [6]) is on record?
The value was “completely inhibits fibrin degradation”.

With NGF: nerve growth factor as the molecule, how does the “tPA activity in SCs” value (wt and p75NTR−/− SCs) read?
The value was “do not affect activity of tPA; also recorded: has no effect on tPA”.

What about the “intracellular cAMP levels in NIH3T3p75NTR cells, neurotrophins or their inhibition” value (NIH3T3p75NTR cells [1]; 100 ng/ml NGF, 50 ng/ml BDNF, 750 ng/ml FcTrkB, 1.35 ug/ml Fcp75NTR, 1 h) of the same molecule?
Its value is “does not affect the p75NTR-mediated suppression of cAMP”.

How did the “intracellular cAMP levels in NIH3T3p75NTR cells” value (NIH3T3p75NTR cells [1]) turn out when pertussis toxin [PTX] was run?
Its value is “does not rescue the p75NTR-mediated down-regulation of cAMP; also recorded: only IBMX (P<0.0001) and rolipram (P<0.0001) increase”.

B1: BDNF: Brainderived neurotrophic factor (protein, UniProt P23560 19-247, looked up)
Neurotrophic factor BDNF …: APMKEANIRGQGGLAYPGVRTHGTLESVNGPKAGSRGLTSLADTFEHVIEELLDEDQKVRPNEENNKDADLYTSRVMLSSQVPLEPPLLFLLEEYKNYLDAANMSMRVRRHSDPARRGELSVCDSISEWVTAADKKTAVDMSGGTVTVLEKVPVSKGQLKQYFYETKCNPMGYTKEGCRGIDKRHWNSQCRTTQSYVRALTMDSKKRIGWRFIRIDTSCVCTLTIKRGR
For B1, which “tPA activity in SCs” value (wt and p75NTR−/− SCs) is on record?
Its value is “do not affect activity of tPA; also recorded: has no effect on tPA”.

B2: endogenous PDE4A5 (PDE4A, 109 kD) of NIH3T3p75NTR cells (protein)
chain: MEPPAAPSERSLSLSLPGPREGQATLKPPPQHLWRQPRTPIRIQQRGYSDSAERSEPERSPHRPIERADAVDTGDRPGLRTTRMSWPSSFHGTGTGGGSSRRLEAENGPTPSPGRSPLDSQASPGLMLHAGAATSQRRESFLYRSDSDYDMSPKTMSRNSSVASEAHGEDLIVTPFAQVLASLRNVRSNFSLLTNVPIPSNKRSPLGGPPSVCKATLSEETCQQLARETLEELDWCLEQLETMQTYRSVSEMASHKFKRMLNRELTHLSEMSRSGNQVSEYISNTFLDKQHEVEIPSPTPRQRPFQQPPPAAVQQAQPMSQITGLKKLVHTGSLNINVPRFGVKTDQEDLLAQELENLSKWGLNIFCVSEYAGGRSLSCIMYTIFQERDLLKKFHIPVDTMMTYMLTLEDHYHADVAYHNSLHAADVLQSTHVLLATPALDAVFTDLEILAALFAAAIHDVDHPGVSNQFLINTNSELALMYNDESVLENHHLAVGFKLLQEENCDIFQNLSKRQRQSLRKMVIDMVLATDMSKHMTLLADLKTMVETKKVTSSGVLLLDNYSDRIQVLRNMVHCADLSNPTKPLELYRQWTDRIMAEFFQQGDRERERGMEISPMCDKHTASVEKSQVGFIDYIVHPLWETWADLVHPDAQDILDTLEDNRDWYHSAIRQSPSPTLEEEPGVLSDPALPDKFQFELTLEEEDEEDSLEVPGLPCTEETLLAPHDTRAQAMEQSKVKGQSPAVVEVAESLKQETASAHGAPEESAEAVGHSFSLETSILPDLRTLSPSEEAQGLLGLPSMAAEVEAPRDHLAAMRACSACSGTSGDNSAVISAPGRWGSGGDPA
Which “FRET emission ratio change of pm-AKAR2.2 in response to forskolin (membrane-associated PKA activity)” value [7] does the source give for B2 here?
Its value is “NIH3T3p75NTR cells show an attenuated response, revealing reduced PKA activity at the plasma membrane”.
